Measured values taken from patent US10253071B2, “Selectin inhibitors, composition, and uses related thereto” (Beth Israel Deaconess Medical Center, Inc., priority 2014, dated 2019).
Square brackets hold non-standard residues; d marks the D form. Peptide text beside a SMILES is read from it. * marks the point of attachment. X1 = CC(=O)N[C@@H]1[C@@H](O[C@@H]2O[C@H](CO)[C@H](O)[C@H](O)[C@H]2O)[C@@H](O)[C@@H](CO[C@@H]2O[C@H](CO)[C@@H](O[C@@H]3O[C@H](CO)[C@H](O)[C@H](O[C@]4(C(=O)O)C[C@H](O)[C@@H](NC(C)=O)[C@H]([C@H](O)[C@H](O)CO)O4)[C@H]3O)[C@H](O[C@@H]3O[C@@H](C)[C@@H](O)[C@@H](O)[C@@H]3O)[C@H]2NC(C)=O)O[C@@H]1*; Phe(4-CH2SO3H) = N[C@@H](Cc1ccc(CS(=O)(=O)O)cc1)C(=O)O; Mca = COc1ccc2c(CC(=O)*)cc(=O)oc2c1

Assays:
E-selectin (E-sel-Ig) = target: T1, E-selectin (E-sel-Ig) (Homo sapiens, UniProt P16581); assay: Biacore binding assay, E-selectin; settings: compared with P-selectin
T1 sequence (P16581 22-610): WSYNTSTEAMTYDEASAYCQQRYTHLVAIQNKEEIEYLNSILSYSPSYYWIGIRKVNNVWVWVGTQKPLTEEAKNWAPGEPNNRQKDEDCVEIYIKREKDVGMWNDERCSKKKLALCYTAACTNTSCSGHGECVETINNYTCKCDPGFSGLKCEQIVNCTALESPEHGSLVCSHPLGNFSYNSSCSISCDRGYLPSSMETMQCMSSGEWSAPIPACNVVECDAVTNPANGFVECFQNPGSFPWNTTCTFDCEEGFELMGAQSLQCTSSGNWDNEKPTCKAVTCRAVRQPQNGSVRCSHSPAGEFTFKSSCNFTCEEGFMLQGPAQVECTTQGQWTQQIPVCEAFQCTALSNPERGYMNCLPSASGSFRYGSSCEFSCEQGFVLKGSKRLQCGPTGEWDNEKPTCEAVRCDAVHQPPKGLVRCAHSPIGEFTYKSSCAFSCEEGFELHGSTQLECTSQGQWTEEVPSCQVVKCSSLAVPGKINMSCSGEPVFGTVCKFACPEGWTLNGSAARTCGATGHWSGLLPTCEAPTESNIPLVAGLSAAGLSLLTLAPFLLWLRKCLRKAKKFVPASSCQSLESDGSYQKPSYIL
Procedure: (§1) Dissociation constants (Kd) were determined using a Biacore binding assay after initial capture of biotinylated GS(n)P-6 onto streptavidin-coated sensor chips followed by flow through of P-, L- or E-sel-Ig (2.5 to 60 μg/mL). […] The Kd of GSnP-6 to murine P-selectin was ˜9-fold lower than to human P-selectin.

mouse P-selectin = target: T2, mouse P-selectin (Mus musculus, UniProt Q01102); assay: Biacore binding assay, mouse P-selectin
T2 sequence (Q01102 42-768): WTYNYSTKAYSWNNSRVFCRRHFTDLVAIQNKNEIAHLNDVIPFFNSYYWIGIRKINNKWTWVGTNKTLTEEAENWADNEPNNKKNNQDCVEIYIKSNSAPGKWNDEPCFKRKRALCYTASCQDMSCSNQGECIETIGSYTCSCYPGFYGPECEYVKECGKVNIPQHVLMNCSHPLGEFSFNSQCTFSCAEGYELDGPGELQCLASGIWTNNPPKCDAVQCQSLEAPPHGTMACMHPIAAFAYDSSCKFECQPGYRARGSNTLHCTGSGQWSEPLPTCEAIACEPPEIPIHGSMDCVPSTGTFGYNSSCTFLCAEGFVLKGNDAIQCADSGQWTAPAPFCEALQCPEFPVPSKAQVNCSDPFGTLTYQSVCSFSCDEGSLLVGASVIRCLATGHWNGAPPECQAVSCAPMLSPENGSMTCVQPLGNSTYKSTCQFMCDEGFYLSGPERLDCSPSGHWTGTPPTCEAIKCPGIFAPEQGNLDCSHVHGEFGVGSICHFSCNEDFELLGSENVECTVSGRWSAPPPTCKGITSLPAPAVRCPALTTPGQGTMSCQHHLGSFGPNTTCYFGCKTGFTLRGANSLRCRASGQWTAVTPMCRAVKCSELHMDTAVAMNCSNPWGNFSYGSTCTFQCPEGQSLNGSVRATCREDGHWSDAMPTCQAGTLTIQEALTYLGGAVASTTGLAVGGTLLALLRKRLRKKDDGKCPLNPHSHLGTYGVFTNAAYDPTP
Procedure: Bound peptides were detected using Alexa-488 labeled anti-human IgG antibody (5 μg/mL). Three lectins RCA-1, AAL, and PNA were used to confirm the sequence of enzymatic steps. Monoclonal antibodies CHO131, PSG2 antibody and PL-1 were used to confirm the presence of SLex, tyrosine sulfates, and the peptide sequence, respectively. Biacore binding analysis to human P-selectin with observed rate constants for (D) GSnP-6, kon 3.1×10^5 M^−1s^−1, koff 6.9×10^3 M^−1s^−; GSn2P-6, kon6.4×10^5 M^−1s^−1, koff 6.8×10^3 M^−1s. Biacore binding analysis to mouse P-selectin with observed rate constants for (E) GsnP-6, kon 4.9×10^4 M^−1s^−1, koff 8.0×10^3 M^−1s^−; GSn2P-6 kon 5.3×10^4 M^−1s^−1, koff 9.0×10^3 M^−1s. (F) Temperature- and pH-dependent stability studies of GSnP-6.
as §1

COc1ccc2c(CC(=O)NCCCC[C@H](N)C(=O)N[C@@H](CCC(=O)O)C(=O)N[C@@H](Cc3ccc(CS(=O)(=O)O)cc3)C(=O)N[C@@H](CCC(=O)O)C(=O)N[C@@H](Cc3ccc(CS(=O)(=O)O)cc3)C(=O)N[C@@H](CC(C)C)C(=O)N[C@@H](CC(=O)O)C(=O)N[C@@H](Cc3ccc(CS(=O)(=O)O)cc3)C(=O)N[C@@H](CC(=O)O)C(=O)N[C@@H](Cc3ccccc3)C(=O)N[C@@H](CC(C)C)C(=O)N3CCC[C@H]3C(=O)N[C@@H](CCC(=O)O)C(=O)N[C@H](C(=O)N[C@@H](CCC(=O)O)C(=O)N3CCC[C@H]3C(=O)N[C@@H](CC(C)C)C(=O)O)[C@@H](C)O[C@H]3O[C@H](CO[C@@H]4O[C@H](CO)[C@@H](O[C@@H]5O[C@H](CO)[C@H](O)[C@H](O[C@]6(C(=O)O)C[C@H](O)[C@@H](NC(C)=O)[C@H]([C@H](O)[C@H](O)CO)O6)[C@H]5O)[C@H](O[C@@H]5O[C@@H](C)[C@@H](O)[C@@H](O)[C@@H]5O)[C@H]4NC(C)=O)[C@H](O)[C@H](O[C@@H]4O[C@H](CO)[C@H](O)[C@H](O)[C@H]4O)[C@H]3NC(C)=O)cc(=O)oc2c1 [GSnP-6] (H-K(Mca)E[Phe(4-CH2SO3H)]E[Phe(4-CH2SO3H)]LD[Phe(4-CH2SO3H)]DFLPET(X1)EPL-OH)
apparent affinity to E-selectin (E-selectin (E-sel-Ig)): even lower apparent affinity
Kd to murine P-selectin relative to human P-selectin (mouse P-selectin; printed as fold lower than to human P-selectin): ~9 fold
koff (mouse P-selectin; read-out: koff, mouse P-selectin): 0.008 s⁻¹
kon (mouse P-selectin; read-out: kon, mouse P-selectin): 49000 M⁻¹ s⁻¹
